Read-outs that look alike come from different tables or passages of the source. Ends that are not written are not given here.
Columns and labels:
[1] = test system: isolated chloroplasts; experiment: Oxygen evolution bioassay, phytotoxicity (isolated chloroplasts); type: cell-based, Spinach (Spinacia oleracea L. var. Melody); conditions: for inhibition of oxygen evolution: 8 uM
Experimental: The following procedure for the preparation of chloroplasts to use in an oxygen electrode is similar to that of Gupta et al., "Development and Use of Chlorotetracycline Fluorescence as a Measurement Assay of Chloroplast Envelope-Bound Mg^2+, "Plant Physiol. 89, (1989) 753-761. Spinach (Spinacia oleracea L. var. `Melody`) was grown in 1:1 peat/vermiculite potting mix in a growth chamber with a 10 hour light period. The chamber temperature was maintained at 21° C. (day) and 16° C. (night) during the growth period. All plants were used for chloroplast isolation after 6-8 weeks of growth.
In order to obtain an enriched chloroplast fraction, about 12 g of deribbed spinach leaves were thoroughly washed and surface dried. The leaves were then cut into small pieces, each about 1/2 inch square, and were placed in a small blender jar containing 50 mL of chilled homogenization medium (0.33M sorbitol, 50 mM Hepes-NaOH, pH 6.8, 2mM Na2 EDTA, 1 mM MnCl2, 1 mM MgCl2). The tissue was blended twice for three second intervals on high speed in a blender. The resulting homogenate was filtered through four layers of cheesecloth and two layers of miracloth (Behring Diagnostics, La Jolla, Calif.) into two chilled 30 mL glass centrifuge tubes. The filtered solution was centrifuged for 1.0 minute at 750 g (2,200 RPM) in a JS 13.1 swinging bucket rotor in a Beckman J2-21M centrifuge (Beckman Instruments, Inc., Somerset, N.J.). The supernatant was then decanted and the pellet was gently resuspended by swirling at 0° C. About 15 mL of homogenization medium was added to each tube of chloroplasts before the chloroplasts were layered onto a 40% Percoll gradient (6 mL Percoll, 9 mL homogenization medium, and 0.03 g bovine serum albumin) in a 30 mL glass centrifuge tube. These tubes were centrifuged for 4.0 minutes at 2500 g (4000 RPM) in a JS 13.1 swinging bucket rotor in a Beckman J2-21M centrifuge. The supernatant was removed and the resulting pellet was resuspended in a small amount of homogenization medium (about 500 microliters).
Plastid concentration was generally expressed on a chlorophyll basis. Chlorophyll was determined by the method of Arnon "Copper Enzymes in Isolated Chloroplasts, Polyphenol Oxidase in Beta Vulgaris," Plant Physiol. 24, (1949) 1-15. About 50 microliters of chloroplast stock suspension was added to 10 mL of 80% acetone and this solution was incubated 5.0 minutes in the dark and then centrifuged for 5.0 minutes at 500 g (1630 RPM) in a Beckman GP centrifuge. The absorbance of the acetone-chloroplast solution was monitored at 645 nm, at 663 nm and at 730 nm. The chlorophyll concentration was then calculated as 10× [(absorbance at 645 nm×20.2)+(absorbance at 663 nm×8.02)--background at 730 nm]. This gave the amount of chlorophyll in micrograms for the original 50 microliters of chloroplasts. The concentration of chloroplasts was then adjusted with homogenization medium so that 50 microliters of suspension contained 26 micrograms of chlorophyll. These chloroplasts were only active for 11/2 to 2 hours and were therefore used immediately.
An oxygen electrode (Hansatech Instruments Ltd., Kings Lynn, Norfolk, England) was used to measure oxygen evolution from isolated chloroplasts. For a detailed discussion of the method see, D. Walker, "The Use of the Oxygen Electrode and Fluorescence Probes in Simple Measurements of Photosynthesis," supra. A saturated KCl solution was placed in the electrode well and a one-inch square of rolling paper or lens paper was placed in to the electrode well so that it soaked up KCl and formed an ionic bridge. A one-inch square of teflon membrane was then prepared, being careful not to touch its surface, and was placed over the soaked paper. Using the membrane applicator, an O ring was placed over the head of the electrode, thereby securing paper and membrane across the electrode. The CB-1D control box was turned on and the system was allowed to warm up approximately one hour before calibration. […]

[2] = test system: plant protease; conditions: cited from earlier work
[3] = test system: maize BMS suspension cells; experiment: Whole cell phytotoxicity screening (oxygen consumption); type: cell-based
Experimental: Oxygen consumed by maize BMS suspension cells were determined as an indication of the relative phytotoxicity of antimicrobial peptides. Black Mexican Sweet (BMS) cell suspension cultures were maintained by transferring 25 mls of cell culture to 25 mls of fresh MSA2D media (4.4 g bottle of Murashige and Skoog basal salt mixture Sigma catalog No. M5524, 100 mg myoinositol, 150 mg L-asparagine, 30 g sucrose, 20 mls of 0.1 mg/ml 2.4-dichlorophenoxy acetic acid stock and 1 ml of vitamin stock consisting of 25 mg/100 ml calcium pantothenate, 50 mg/100 ml pyridoxine, 50 mg/100 ml nicotinic acid, 50 mg/100 ml thiamine, 200 mg/100 ml glycine all added to 1 liter sterile distilled water followed by autoclaving 25 minutes at 121° C.) in a capped sterile 250 ml Erlenmeyer flask 3 days after culture initiation. Four days later 12.5 mls of the cell culture was transferred to 35.5 mls of fresh MSA2D media. Cultures were continuously maintained by alternating 3 and 4 day transfer regimes. The cultures were shaken in low light at 125 RPM at room temperature. For oxygen consumption experiments cells were used one day after transferring to fresh media. Cells were poured into a sterile 50 ml centrifuge tube and allowed to settle by gravity. Spent media was drawn off and 7.8 mls of fresh MSA2D media was added per gram of settled cells. The cell stock solution was placed on a shaker for continued aeration and was used in all assays conducted on that day.
An oxygen electrode (Hansatech Limited, Kings' Lynn, Norfolk, England) was inspected to insure that no corrosion was present. A saturated KCl solution was then placed in the clean electrode well. A 1 inch square of rolling paper or lens paper was cut and placed over the well so that the edges of the paper soaked up KCl and formed an ionic bridge. A 1 inch square of teflon membrane was cut, being careful not to touch the surface, and placed over the soaked rolling paper. A membrane applicator was used to press an O-ring over the head of the electrode thereby securing paper and membrane across the electrode. The CB-1D control box (Hansatech Limited) was turned on and allowed to warm up approximately one hour before calibration. The CB-1D control box was set at 1X output. A chart recorder was set at 0.05 V input with a chart speed of 3 cm/min. A circulating water bath set at 20° C. was hooked up to the electrode chamber. The entire system was calibrated using air-saturated water obtained by vigorously shaking a wash bottle of distilled water. Using the gain switch, the output was set so that the pen on the chart recorder was at the maximum chart height (900=top). The oxygen concentration of air-saturated water was assumed to be 276 nmole/mL at 20° C. All air was removed from the water in the cuvette by adding 2-3 mg of sodium dithionite. The pen on the chart recorder responded by moving to the bottom of the graph. If the slope of the line was unstable, the membrane and rolling paper were removed and the set-up steps were repeated.
For a 1 mL assay, 888 uL water and 62.5 uL BMS stock cell suspension were added to the oxygen electrode cuvette. The final concentration of cells used in the assay was approximately 8 mg/mL. The rate of oxygen consumed by the cells was monitored on the chart recorder for 3 minutes. Fifty microliters of peptide was then added to the cuvette using a Hamilton syringe. (Peptide stocks were adjusted to deliver the desired concentration in a 50 uL volume). Oxygen consumption was monitored for 5 minutes after peptide addition. The time period for the complete test was 8 minutes.
The rate of suppression of oxygen consumption after the addition of a peptide was determined by comparing the slope of the line before the addition of the peptide to the slope of the line at a set time point after addition of the peptide. The rate of oxygen consumption after addition of the peptide was divided by the initial control rate of oxygen consumption and then multiplied by 100. […]

[4] = test system: extracellular plant proteases; experiment: in vitro; conditions: pH 7.4
Excerpt: In an attempt to determine the sensitivity of peptides to extracellular plant proteases, and to determine the site or sites of processing by these proteases, a system was designed to obtain extracellular fluid from leaves of maize, tobacco, or potato and to use these to test the stability of various peptides.
Extracellular fluid (ECF) was obtained by cutting interveinal pieces from tobacco leaf after they were rinsed in deionized water. The segments were submerged in water in a vacuum desicator and vacuum was applied for 5 to 10 min. The vacuum was released slowly, the leaves were blotted dry and 4 to 5 pieces were rolled and placed in a 50 mL disposable syringe barrel cut down so as to be able to fit in a swinging bucket centrigue rotor. The syringe barrel was placed in a 50 mL screw cap conical centrifuge tube and centrifuged in a swinging bucket rotor at 600×g for 30 min. The liquid was recovered and centrifuged in a microfuge for 10 min. The supernatant was stored at -80° C. and used in subsequent experiments.
To test the stability of a peptide to extracellular plant proteases, 10 ug of the peptide (1 mg/mL) was incubated with 10% extracellular fluid in 50 mM Tris HCL buffer, pH 7.4. The peptides tested were prepared or obtained as described in Examples 6, 13, and 14. After incubation at 37° C. for 0, 15, 30, 45 and 60 min the proteases were inactivated by the addition of trifluoroacetic acid (TFA) to 1% final concentration (v/v).
Peptides were analyzed by reverse phase chromatography on a 2.1×30 mm POROS R/H column (PerSpective Biosystems, Cambridge, Mass.) using a 5 to 35% acetonitrile gradient in 0.1% TFA on a Hewlett-Packard HP1090 high pressure liquid chromatograph (Hewlett Packard, Avondale, Pa.) at 3.5 mL/min.

[5] = test system: plant protease
[6] = Phytotoxicity (method not given)
[7] = 10% extracellular fluid from tobacco leaf

Substance: CGIGKFLREAGKFGKAFVGEIMKP [Peptide No. 13, Cys [Arg 7, Glu 8, Pro 23] Mag 1]
- inhibition of oxygen evolution [1]: 100%

Substance: GIGKFLHEAKKFGKAFVGEIMNS [Peptide No. 10, [Glu 8] Mag 2]
- decrease in the susceptibility to proteolytic degradation [2]: ≥ 50%

Substance: GIGKFLHSAGKFGKAFVGEIMKS [Peptide No. 2, Magainin 1]
- Percent Inhibition of Oxygen Consumption Caused by Addition of 4 μM Peptide [3]: 52 +/- 6%
- phytotoxic effect on whole cells, oxygen consumption (in words) [3]: greater overall phytotoxic effect on whole cells

Substance: GIGKFLHSAKKFGKAFVGEIMNS [Peptide No. 1, Magainin 2]
- phytotoxic effect on whole cells, oxygen consumption (in words) ([3]; Table V): much higher level of inhibition of oxygen consumption
- remaining at 0.25 h [4, 7]: 23%
- remaining at 0.5 h [4, 7]: 18%
- remaining at 0.75 h [4, 7]: 5.3%
- remaining at 1 h [4, 7]: 0.5%
- Percentage of Area Under the Parent Peak ([4]; Time 0 min, 10% extracellular fluid, 37° C.): 100 Percentage

Substance: GIGKFLHSAKKFGKAFVGEIMNSGGGGGGIGKFLHSAKKFGKAFVGEIMNS [Peptide No. 6, Mag 2 dimer (bridged)]
- inhibition of oxygen evolution [1]: 100%

Substance: GIGKFLHSAKKFGKAFVGEIMNSGIGKFLHSAKKFGKAFVGEIMNS [Peptide No. 5, (Mag 2)-(Mag 2)]
- inhibition of oxygen evolution [1]: 100%
- Percent Inhibition of Oxygen Consumption Caused by Addition of 4 μM Peptide [3]: 72 +/- 13%
- phytotoxic effect on whole cells, oxygen consumption (in words) [3]: no significantly different effect on phytotoxicity

Substance: KWKLFKKIEKVGQNIRDGIIKAGPAVAVVGQATQIAK-NH2 [Peptide No. 3, Cecropin A-NH2, reference compound]
- inhibition of oxygen evolution [1]: 100%

Substance: MGIGKFLREAGKFGKAFVGEIMKGIGKFLREAGKFGKAFVGEIMKP [Peptide No. 15, Head-to-tail peptide Nos. 11 and 12***]
- inhibition of oxygen evolution [1]: 100%

Substance: SNMIEGVFAKGFKKASHLFKGIG [Peptide No. 8, Reverse Magainin 2]
- phytotoxicity effect compared to native Magainin 2 (in words) [1]: extremely low Phytotoxicity effect
- Percent Inhibition of Oxygen Consumption Caused by Addition of 4 μM Peptide [3]: 16 +/- 12%

Substance: SWLSKTAKKLENSAKKRISEGIAIAIQGGPR [Peptide No. 4, P1]
- susceptibility to proteolysis (in words) [5]: very low
- phytotoxicity (in words) [6]: very low
- phytotoxic effect on whole cells, oxygen consumption (in words) ([3]; Table V): greater overall phytotoxic effect on whole cells

From patent US5519115A, “Reverse antimicrobial peptides” (priority 1993, dated 1996)
